Some test systems named below: MOLT-4 leukemia; UO-31 renal; OVCAR-3 ovarian; OVCAR-5 ovarian; M14 melanoma; TK-10 renal; BT-549 breast; EKVX NSCLC; SK-MEL-2 melanoma; MDA-MB-231 breast.
What all share (assay): inhibition of tumour cell growth, NCI panel, 48 h

Each structure is given as a SMILES string. Where “and” joins values, the source holds several entries; their conditions need not be identical. Equal values may be shown once.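 All cell lines were grown in 96-well plates and treated with compound for 48 hours. Here, GI50 denotes the concentration required for 50% inhibition of growth. TGI: total growth inhibition.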 A value given as a limit tells only on which side of the number the result lay.

GI50 and TGI data for 13 compounds are collected here from PubChem BioAssay (NCI).

Take `O=C(Oc1ccc(Cl)cc1)c1ccccc1Nc1ccnc(C(F)(F)F)c1`: the GI50 in the assay with MOLT-4 leukemia is more than 100 µM; in the assay on UO-31 renal, 28.2 µM; with OVCAR-3 ovarian, 11.6 µM; with OVCAR-5 ovarian it was 25.6 µM; with M14 melanoma, 2.12 µM; in the assay with TK-10 renal, 17.9 µM. The GI50 in the assay on BT-549 breast was 14.9 µM; with EKVX NSCLC, 25.2 µM; with SK-MEL-2 melanoma, 20.2 µM; in the assay with MDA-MB-231 breast, 1.78 µM. For the same compound, the TGI in the assay with MOLT-4 leukemia was more than 100 µM; in the assay with UO-31 renal, more than 100 µM; with OVCAR-3 ovarian, 26.4 µM; with OVCAR-5 ovarian it was 84.4 µM; with M14 melanoma, 4.53 µM; in the assay on TK-10 renal it was 48.9 µM. In addition, the TGI was 41.2 µM in the assay with BT-549 breast, 64 µM with EKVX NSCLC, more than 100 µM with SK-MEL-2 melanoma and 7.04 µM with MDA-MB-231 breast.
As for `O=C(Nc1ccc(Oc2ccc(Nc3nc4ccccc4s3)cc2)cc1)Nc1ccc(Cl)c(C(F)(F)F)c1`, the GI50 in the assay on UO-31 renal was 1.22 µM; with OVCAR-3 ovarian it was 1.54 µM; in the assay with OVCAR-5 ovarian it was 1.64 µM; with M14 melanoma, 1.46 µM; in the assay on TK-10 renal, 2.3 µM; in the assay with BT-549 breast, 1.54 µM. The GI50 was 1.62 µM with EKVX NSCLC, 2.12 µM with SK-MEL-2 melanoma and 1.37 µM with MDA-MB-231 breast. Moreover, the TGI with UO-31 renal came out at 2.82 µM; with OVCAR-3 ovarian, 3.98 µM; in the assay with OVCAR-5 ovarian, 3.61 µM; in the assay with M14 melanoma, 3.13 µM; in the assay on TK-10 renal it was 5.35 µM; in the assay with BT-549 breast, 3.05 µM. For the same compound, the TGI in the assay on EKVX NSCLC stood at 5.45 µM; in the assay with SK-MEL-2 melanoma, 4.35 µM; with MDA-MB-231 breast, 2.86 µM.
As to `CN(C)CC1CC/C(=C\c2ccc(O)cc2)C1=O` (stereo unspecified), the TGI is 5.29 µM with MOLT-4 leukemia; 26.5 µM in the assay with UO-31 renal; 8.33 µM with OVCAR-3 ovarian; 31.6 µM with OVCAR-5 ovarian; 4.95 µM in the assay with M14 melanoma; 9.01 µM in the assay on TK-10 renal. The TGI in the assay on BT-549 breast is 3.73 µM; in the assay with EKVX NSCLC it was 14.4 µM; in the assay with SK-MEL-2 melanoma it was 21.1 µM; in the assay on MDA-MB-231 breast, 9.22 µM.
Take `Oc1[nH]c2ccccc2c1N=Nc1nc(-c2ccc(Br)cc2)cs1`: the TGI is more than 100 µM in the assay on MOLT-4 leukemia; 56.2 µM with UO-31 renal; 67.7 µM in the assay with OVCAR-3 ovarian; more than 100 µM in the assay on OVCAR-5 ovarian; 59.2 µM with M14 melanoma; 61.2 µM in the assay with TK-10 renal. Moreover, the TGI in the assay on BT-549 breast was 45.6 µM; with EKVX NSCLC it was 30.4 µM; with SK-MEL-2 melanoma it was more than 100 µM; with MDA-MB-231 breast it was 62.5 µM.
As to `CC(C)[C@@H]1C=C2CC[C@H]3[C@](C)(CN)CCC[C@]3(C)[C@H]2CC1`, the GI50 with MOLT-4 leukemia was 2.35 µM; with UO-31 renal, 3.33 µM; with OVCAR-3 ovarian, 2.8 µM; with OVCAR-5 ovarian, 2.22 µM; with M14 melanoma, 1.86 µM; in the assay with TK-10 renal, 12 µM. The GI50 in the assay with BT-549 breast is 16.5 µM; with EKVX NSCLC, 7.32 µM; in the assay with SK-MEL-2 melanoma it was 3.88 µM; with MDA-MB-231 breast, 2.12 µM. In addition, the TGI with MOLT-4 leukemia was found to be 6.03 µM; in the assay on UO-31 renal, 16.1 µM; in the assay with OVCAR-3 ovarian, 9.22 µM; in the assay with OVCAR-5 ovarian, 5.38 µM; in the assay with M14 melanoma, 3.4 µM; in the assay with TK-10 renal, 25.3 µM. Moreover, the TGI with BT-549 breast came to 35.4 µM; in the assay on EKVX NSCLC it was 23.4 µM; in the assay on SK-MEL-2 melanoma it was 14.2 µM; in the assay with MDA-MB-231 breast, 5.47 µM.
As to `CCCCCCCCCCCCC(O)c1ccc(C#CCCCCCCCCCO)o1` (stereo unspecified), the GI50 was 4.69 µM with MOLT-4 leukemia; 19.9 µM in the assay with UO-31 renal; 19.1 µM in the assay with OVCAR-3 ovarian; 20.9 µM in the assay with OVCAR-5 ovarian; 17.4 µM in the assay on M14 melanoma; 15.7 µM with TK-10 renal. Besides, the GI50 with BT-549 breast was 21.7 µM; in the assay on EKVX NSCLC, 22.2 µM; with SK-MEL-2 melanoma, 26.4 µM; in the assay on MDA-MB-231 breast, 20.4 µM. For the same compound, the TGI with MOLT-4 leukemia came to 26.7 µM; in the assay on UO-31 renal it was 38.5 µM; with OVCAR-3 ovarian, 34 µM; in the assay on OVCAR-5 ovarian, 39.2 µM; with M14 melanoma it was 31.9 µM; in the assay on TK-10 renal, 30.5 µM. The TGI turned out to be 42.3 µM in the assay on BT-549 breast, 43.1 µM with EKVX NSCLC, 81 µM with SK-MEL-2 melanoma and 36.2 µM in the assay on MDA-MB-231 breast.
`CN(C)c1cc(NN=C(c2ccc(O)cc2)c2ccc(O)cc2)c([N+](=O)[O-])cc1[N+](=O)[O-]`: the GI50 in the assay on MOLT-4 leukemia is 3.37 µM; in the assay on UO-31 renal, 5.32 µM; in the assay with OVCAR-3 ovarian, 2.53 µM; with OVCAR-5 ovarian, 17.2 µM; in the assay on M14 melanoma, 9.06 µM; in the assay on TK-10 renal, 7.35 µM. Further, the GI50 in the assay with BT-549 breast was 6.32 µM; in the assay on EKVX NSCLC, 5.49 µM; with SK-MEL-2 melanoma, 7.45 µM; in the assay on MDA-MB-231 breast, 4.72 µM. Further, the TGI was 23.2 µM in the assay with MOLT-4 leukemia; 20.5 µM with UO-31 renal; 9.81 µM in the assay on OVCAR-3 ovarian; 32.4 µM in the assay on OVCAR-5 ovarian; 22.6 µM in the assay on M14 melanoma; 22 µM in the assay with TK-10 renal. Also, the TGI was found to be 21.5 µM in the assay on BT-549 breast, 18.1 µM with EKVX NSCLC, 22.9 µM in the assay on SK-MEL-2 melanoma and 17.5 µM in the assay with MDA-MB-231 breast.
On to `O=C(CCCSc1nc(-c2ccccc2)cc(-c2ccccc2)n1)NO`, for which the GI50 in the assay on MOLT-4 leukemia is 1.1 µM; in the assay with UO-31 renal, 0.274 µM; in the assay on OVCAR-3 ovarian, 1.6 µM; in the assay with OVCAR-5 ovarian, 1.37 µM; in the assay with M14 melanoma it was 0.927 µM; in the assay on TK-10 renal it was 0.669 µM. In addition, the GI50 in the assay on BT-549 breast was 2.66 µM; in the assay on EKVX NSCLC, 2.93 µM; in the assay on SK-MEL-2 melanoma it was 2.35 µM; in the assay with MDA-MB-231 breast, 1.99 µM. In addition, the TGI was found to be 10.2 µM in the assay with MOLT-4 leukemia; 1.27 µM in the assay with UO-31 renal; 6.16 µM in the assay with OVCAR-3 ovarian; 5.64 µM in the assay on OVCAR-5 ovarian; 5.29 µM with M14 melanoma; 19.1 µM in the assay on TK-10 renal. Moreover, the TGI was found to be 17 µM in the assay with BT-549 breast, 14.5 µM in the assay with EKVX NSCLC, 12.6 µM in the assay on SK-MEL-2 melanoma and 7.72 µM with MDA-MB-231 breast.
`CC(=O)CC(OC(C)=O)C1=CCC2C(CC1C)OC(=O)C2C` (stereo unspecified): the TGI in the assay with MOLT-4 leukemia, in the assay on OVCAR-3 ovarian, with OVCAR-5 ovarian, with M14 melanoma, with TK-10 renal and in the assay with BT-549 breast was more than 100 µM throughout. Besides, the TGI in the assay with EKVX NSCLC, in the assay with SK-MEL-2 melanoma and in the assay on MDA-MB-231 breast was more than 100 µM in each case.
For `O=C(O)c1nc2nc(Cl)c(Cl)nc2[nH]1`, the TGI in the assay with MOLT-4 leukemia, in the assay on OVCAR-3 ovarian, in the assay with OVCAR-5 ovarian, with M14 melanoma, with TK-10 renal and in the assay with BT-549 breast was more than 100 µM throughout. In addition, the TGI in the assay on EKVX NSCLC, in the assay on SK-MEL-2 melanoma and in the assay with MDA-MB-231 breast was more than 100 µM in each case.
For `CC1=C2C(=C[C@@](C)(CO)[C@@H]2O)C(=O)[C@](C)(O)C12CC2`, the GI50 with MOLT-4 leukemia is 0.0107 µM; in the assay with MDA-MB-231 breast, 0.503 µM. In addition, the TGI in the assay on UO-31 renal is 0.0422 µM; in the assay on OVCAR-5 ovarian, 0.0664 µM and 0.0689 µM; in the assay on M14 melanoma it was 0.0228 µM; with TK-10 renal it was 0.106 µM; in the assay on BT-549 breast it was 0.0518 µM; in the assay on EKVX NSCLC, 0.0678 µM and 0.0153 µM. In addition, in the assay with SK-MEL-2 melanoma, the TGI was determined as 0.0297 µM.
As for `CCCCCCCCCCn1cc[n+](C)c1`, the GI50 was 2.9 µM in the assay with MOLT-4 leukemia; 10.3 µM in the assay on UO-31 renal; 1.94 µM with OVCAR-3 ovarian; 2.93 µM in the assay with OVCAR-5 ovarian; 1.9 µM with M14 melanoma; 1.24 µM in the assay with TK-10 renal. The results for the GI50 in the assay with BT-549 breast, in the assay with EKVX NSCLC and with MDA-MB-231 breast were 1.56 µM, 0.536 µM and 2.73 µM, respectively. Besides, the TGI in the assay with MOLT-4 leukemia is 29 µM; with UO-31 renal, 50.7 µM; in the assay on OVCAR-3 ovarian, 8.59 µM; in the assay on OVCAR-5 ovarian, more than 100 µM; with M14 melanoma it was 13.5 µM; in the assay with TK-10 renal, 9.58 µM. For the same compound, the values for the TGI in the assay with BT-549 breast, in the assay with EKVX NSCLC and with MDA-MB-231 breast were 8.2 µM, 11.6 µM and 16.9 µM, respectively.
For `COc1ccc2nc(NC(=O)CSc3nnc4n3S(=O)(=O)c3ccccc3N4c3ccccc3)sc2c1`, the GI50 with MOLT-4 leukemia, in the assay with UO-31 renal, in the assay with OVCAR-3 ovarian, in the assay with OVCAR-5 ovarian, in the assay with M14 melanoma and in the assay with TK-10 renal was more than 100 µM in each case. The GI50 is more than 100 µM with BT-549 breast, more than 100 µM with EKVX NSCLC and 23.7 µM in the assay on MDA-MB-231 breast. Also, the TGI in the assay with MOLT-4 leukemia, with UO-31 renal, in the assay on OVCAR-3 ovarian, in the assay on OVCAR-5 ovarian, in the assay on M14 melanoma and in the assay with TK-10 renal was more than 100 µM each time. Further, the TGI with BT-549 breast, with EKVX NSCLC and with MDA-MB-231 breast was more than 100 µM in each case.
